Source: article PMC11398567, “Structures of Native Doublet Microtubules from Trichomonas vaginalis Reveal Parasite-Specific Proteins as Potential Drug Targets” (Research Square, 2024)

Molecular target: T1, TvFAP40 (Trichomonas vaginalis, UniProt A2DSS2)
T1 construct: gene TVAG_347810; native full-length protein in doublet microtubules isolated from parasite flagella; C-terminal residue Tyr377; head domain 1-145, coiled-coil tail 149-361; ligand in head domain
T1 sequence (A2DSS2 1-377): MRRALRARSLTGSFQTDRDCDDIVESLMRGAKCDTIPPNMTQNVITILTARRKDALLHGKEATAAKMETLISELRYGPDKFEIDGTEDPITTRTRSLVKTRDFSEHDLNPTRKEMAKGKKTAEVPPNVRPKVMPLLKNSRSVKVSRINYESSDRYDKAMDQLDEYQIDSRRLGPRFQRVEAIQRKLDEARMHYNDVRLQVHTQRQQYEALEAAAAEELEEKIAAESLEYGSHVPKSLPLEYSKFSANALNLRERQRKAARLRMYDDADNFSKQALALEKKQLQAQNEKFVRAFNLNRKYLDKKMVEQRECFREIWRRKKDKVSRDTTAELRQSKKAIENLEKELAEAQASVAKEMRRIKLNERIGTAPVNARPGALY
Assay: cryo-EM structure of native doublet microtubules
Format: binding
Conditions: co-purified endogenous ligand, putatively assigned from map density; positively charged pocket of head domain; likely metal cation nearby
Source text: cryo-EM structure of native doublet microtubules on TvFAP40 | consistent with bonding to a non-planar six-membered ring.

O=P(O)(O)O[C@H]1[C@H](OP(=O)(O)O)[C@@H](OP(=O)(O)O)[C@H](OP(=O)(O)O)[C@@H](OP(=O)(O)O)[C@H]1OP(=O)(O)O [IP6]
cryo-EM structure of native doublet microtubules: consistent with bonding to a non-planar six-membered ring. Together these features suggested an inositol polyphosphate
